Experimental data published in article PMC11427828, “The role of chloroplast SRP54 domains and its C-terminal tail region in post- and co-translational protein transport in vivo” (Journal of Experimental Botany, 2024).
Substitutions are numbered along the chain they refer to.

Experiments:
[1] = molecular target: T1, cpSRP54–His (recombinant mature cpSRP54) (Arabidopsis thaliana, UniProt P37107, Q185R); experiment: isothermal titration calorimetry; type: binding; conditions: read-out: dissociation constant
T1 construct: gene FFC; mature protein, residues 79-564 (transit peptide removed), C-terminal His6, E. coli Rosetta (DE3), EDTA-treated then SEC in Mg buffer
T1 sequence (P37107 79-564 Q185R): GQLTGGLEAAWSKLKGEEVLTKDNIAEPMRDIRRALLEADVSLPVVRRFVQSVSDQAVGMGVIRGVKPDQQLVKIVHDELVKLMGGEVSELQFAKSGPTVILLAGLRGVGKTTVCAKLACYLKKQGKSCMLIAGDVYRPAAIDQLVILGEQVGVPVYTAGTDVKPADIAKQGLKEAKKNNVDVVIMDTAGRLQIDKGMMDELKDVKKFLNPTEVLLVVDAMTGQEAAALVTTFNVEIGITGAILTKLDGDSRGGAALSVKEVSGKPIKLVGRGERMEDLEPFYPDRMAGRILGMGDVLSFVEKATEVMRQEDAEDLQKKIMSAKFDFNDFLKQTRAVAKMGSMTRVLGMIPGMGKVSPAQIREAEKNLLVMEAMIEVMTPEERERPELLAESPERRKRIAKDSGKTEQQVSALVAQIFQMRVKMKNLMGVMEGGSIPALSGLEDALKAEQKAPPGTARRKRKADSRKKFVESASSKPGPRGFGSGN

[2] = molecular target: T2, cpSRP54–His (recombinant mature cpSRP54) (Arabidopsis thaliana, UniProt P37107); experiment: isothermal titration calorimetry; type: binding; conditions: read-out: dissociation constant
T2 construct: gene FFC; mature protein, residues 79-564 (transit peptide removed), C-terminal His6, E. coli Rosetta (DE3), EDTA-treated then SEC in Mg buffer
T2 sequence (P37107 79-564): T1 sequence (P37107 79-564 Q185R) with R107Q

| Compound | Kd [1] | Kd [2] |
| --- | --- | --- |
| Nc1nc2c(ncn2[C@@H]2O[C@H](COP(=O)(O)OP(=O)(O)O)[C@@H](O)[C@H]2O)c(=O)[nH]1 [GDP] | 30.3 µM | 30.2 µM |
| Nc1nc2c(ncn2[C@@H]2O[C@H](COP(=O)(O)OP(=O)(O)OP(=O)(O)O)[C@@H](O)[C@H]2O)c(=O)[nH]1 [GTP] | 17.3 µM | 53.4 µM |
